Source: patent US7135466B2 (Kirin Beer Kabushiki Kaisha, priority 1999, dated 2006)
Read-outs that look alike come from different tables or passages of the source.

How the values were obtained:
c-kit = target: T1, c-kit (Homo sapiens, UniProt P10721); assay: Inhibitory activity against c-kit autophosphorylation (MO7e cells, h-SCF); assay type: cell-based; settings: for IC50: MO7e cells, read-out: c-kit IC50; for inhibition at 1 µM: Mo7e, at 1000 nM
T1 construct: MO7e (human megakaryocytic leukemia cell line) which had been arrested for 20 hr; endogenous in cells; host or cells: MO7e human megakaryocytic leukemia cell line
Method in brief: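 First, human megakaryocytic leukemia MO7e cells arrested 20 hr receive compound for one hour. Second, SCF stimulation (50 ng/ml) runs 5 min, after which cells are solubilized. Third, tyrosine-phosphorylated c-kit in the lysate is quantified by sandwich ELISA with absorbance at 450 nm.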

PDGF-Ra = target: T2, PDGF-Ra (Homo sapiens, UniProt P16234); assay: Inhibitory activity against PDGF-Ra phosphorylation by PDGF-AA stimulation using G292; assay type: cell-based; settings: for IC50: > means inhibition at indicated concentration not more than 50%, < and << not less than 50%, read-out: PDGF (E) IC50; for inhibition at 0.1 µM: G292, figure within parentheses in >100( ), at 100 nM, read-out: PDGF (E) inhibition (%) at 100 nM
T2 construct: host or cells: G-292 human osteosarcoma cells
Method in brief: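 Read-out: A450 from a sandwich ELISA (PY-20 capture, anti-PDGF-Ra detection, peroxidase colour) of lysates from G-292 cells given compound for 1 hr at 37 °C before a 5 min challenge with PDGF-AA at 50 ng/ml.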

[1] = figure within parentheses in −( ) or >1000( )

T1 sequence (P10721 26-976): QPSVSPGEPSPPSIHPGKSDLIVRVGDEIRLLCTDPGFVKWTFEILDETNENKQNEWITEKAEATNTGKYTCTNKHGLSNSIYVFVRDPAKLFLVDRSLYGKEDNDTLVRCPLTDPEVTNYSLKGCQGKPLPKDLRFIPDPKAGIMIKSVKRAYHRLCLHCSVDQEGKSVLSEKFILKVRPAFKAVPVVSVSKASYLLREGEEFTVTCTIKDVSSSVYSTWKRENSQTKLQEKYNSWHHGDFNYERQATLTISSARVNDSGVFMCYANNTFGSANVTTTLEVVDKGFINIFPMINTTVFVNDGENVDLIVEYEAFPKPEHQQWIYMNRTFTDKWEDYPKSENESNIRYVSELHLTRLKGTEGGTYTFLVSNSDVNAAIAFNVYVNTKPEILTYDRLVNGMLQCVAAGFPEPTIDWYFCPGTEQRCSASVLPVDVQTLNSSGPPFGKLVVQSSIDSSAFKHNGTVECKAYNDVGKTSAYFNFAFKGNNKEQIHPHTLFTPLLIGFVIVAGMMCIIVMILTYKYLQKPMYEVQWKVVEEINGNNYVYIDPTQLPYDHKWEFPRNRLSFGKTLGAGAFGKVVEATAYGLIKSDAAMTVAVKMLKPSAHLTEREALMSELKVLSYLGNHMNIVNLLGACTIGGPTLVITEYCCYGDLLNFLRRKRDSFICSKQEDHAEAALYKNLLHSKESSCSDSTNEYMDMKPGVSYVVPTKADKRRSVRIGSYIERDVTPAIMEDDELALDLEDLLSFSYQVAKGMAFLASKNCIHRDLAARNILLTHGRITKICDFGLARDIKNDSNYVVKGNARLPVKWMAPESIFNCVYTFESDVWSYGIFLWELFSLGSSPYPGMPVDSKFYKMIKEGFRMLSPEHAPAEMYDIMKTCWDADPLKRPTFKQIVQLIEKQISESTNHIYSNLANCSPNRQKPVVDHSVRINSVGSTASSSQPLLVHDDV
T2 sequence (P16234 24-1089): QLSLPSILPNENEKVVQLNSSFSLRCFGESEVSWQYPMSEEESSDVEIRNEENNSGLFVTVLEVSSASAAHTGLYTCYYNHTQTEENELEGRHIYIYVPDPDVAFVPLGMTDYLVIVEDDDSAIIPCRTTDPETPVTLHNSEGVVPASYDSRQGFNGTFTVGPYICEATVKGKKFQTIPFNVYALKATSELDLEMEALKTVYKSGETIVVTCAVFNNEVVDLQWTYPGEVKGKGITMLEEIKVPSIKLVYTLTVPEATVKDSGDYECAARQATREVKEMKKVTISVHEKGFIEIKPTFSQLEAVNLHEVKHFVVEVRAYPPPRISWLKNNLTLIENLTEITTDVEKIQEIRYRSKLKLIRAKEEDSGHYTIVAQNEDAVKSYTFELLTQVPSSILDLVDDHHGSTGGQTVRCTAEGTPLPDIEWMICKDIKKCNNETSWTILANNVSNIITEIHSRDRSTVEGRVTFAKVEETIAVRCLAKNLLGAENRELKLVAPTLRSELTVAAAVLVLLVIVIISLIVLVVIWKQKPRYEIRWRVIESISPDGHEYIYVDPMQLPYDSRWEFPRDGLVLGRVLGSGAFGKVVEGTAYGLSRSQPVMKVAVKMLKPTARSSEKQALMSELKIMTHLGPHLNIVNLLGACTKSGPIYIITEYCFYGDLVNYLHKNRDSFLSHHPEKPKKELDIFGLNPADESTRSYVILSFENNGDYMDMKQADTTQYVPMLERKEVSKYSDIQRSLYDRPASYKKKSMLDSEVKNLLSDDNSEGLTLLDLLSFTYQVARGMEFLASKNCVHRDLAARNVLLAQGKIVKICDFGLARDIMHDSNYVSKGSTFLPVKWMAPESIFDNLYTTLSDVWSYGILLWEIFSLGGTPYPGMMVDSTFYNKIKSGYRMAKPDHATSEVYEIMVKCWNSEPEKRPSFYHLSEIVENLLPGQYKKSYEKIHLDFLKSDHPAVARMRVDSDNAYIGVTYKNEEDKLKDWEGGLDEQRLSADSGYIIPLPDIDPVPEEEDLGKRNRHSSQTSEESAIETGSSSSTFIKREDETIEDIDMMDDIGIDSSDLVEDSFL

IC50 (c-kit; 50 ng/ml h-SCF) [nM] | IC50 (PDGF-Ra) [nM] | IC50 (c-kit; h-SCF 50 ng/ml) [nM] | IC50 (PDGF-Ra; Pharmacological Test Example 1) [nM] | Compound | also measured
– | > 100 | – | – | COc1cc2ncnc(Oc3ccc(NC(=O)NN4CCCCC4)c([N+](=O)[O-])c3)c2cc1OC [Example 597, N-{4-[(6,7-Dimethoxy-4-quinazolinyl)oxy]-2-nitrophenyl}-N′-(1-piperidinyl)urea] | inhibition at 1 µM (c-kit; [1]): 8%; inhibition at 0.1 µM (PDGF-Ra): 27%
– | < 10 | – | – | COc1cc2ncnc(Oc3ccc(NC(=S)NC(=O)c4ccccc4C)c(N4CCOCC4)c3)c2cc1OC [Example 1151, N-{4-[(6,7-Dimethoxy-4-quinazolinyl)oxy]-2-morpholinophenyl}-N′-(2-methylbenzoyl)thiourea] | IC50 (c-kit; h-SCF stimulation): 146 nM
– | 5 | – | – | COc1cc2ncnc(Oc3ccc(NC(=S)NC(=O)c4ccccc4C)cc3)c2cc1OC [Example 927, N-{4-[(6,7-Dimethoxy-4-quinazolinyl)oxy]phenyl}-N′-(2-methylbenzoyl)thiourea] | IC50 (c-kit; h-SCF stimulation): 623 nM
– | – | 60 | 12 | COc1cc2ncnc(Oc3ccc(NC(=O)OCC4CCC4)cc3)c2cc1OC [Example 388, Cyclobutylmethyl N-{4-[(6,7-dimethoxy-4-quinazolinyl)oxy]phenyl}carbamate] | –
– | > 100 | – | – | COc1cc2nccc(Oc3ccc(NC(=O)NC4CCN(Cc5ccccc5)CC4)cc3C)c2cc1OC [Example 642, N-(1-Benzyl-4-piperidyl)-N′-{4-[(6,7-dimethoxy-4-quinolyl)oxy]-3-methylphenyl}urea] | inhibition at 1 µM (c-kit; [1]): 8%; inhibition at 0.1 µM (PDGF-Ra): 20%
581 | 23 | – | – | COc1cc2ncnc(Oc3ccc(NC(=O)NCCN4CCCC4)c([N+](=O)[O-])c3)c2cc1OC [Example 653, N-{4-[(6,7-Dimethoxy-4-quinazolinyl)oxy]-2-nitrophenyl}-N′-(2-tetrahydro-1H-1-pyrrolylethyl)urea] | –
339 | 49 | – | – | COc1cc2nccc(Oc3ccc(NC(=O)NCCN(C)C)c(C)c3C)c2cc1OC [Example 626, N-{4-[(6,7-Dimethoxy-4-quinolyl)oxy]-2,3-dimethylphenyl}-N′-[2-(dimethylamino)ethyl]urea] | –
– | 25 | – | – | CCCC(C)C(=O)NC(=S)Nc1ccc(Oc2ccnc3cc(OC)c(OC)cc23)c(Cl)c1 (stereo not shown) [Example 1200, N-{3-Chloro-4-[(6,7-dimethoxy-4-quinolyl)oxy]phenyl}-N′-(2-methylpentanoyl)thiourea] | IC50 (c-kit; h-SCF stimulation): 716 nM
– | – | 40 | 3 | CCCOC(=O)Nc1ccc(Oc2ccnc3cc(OC)c(OC)cc23)cc1 [Example 247, Propyl N-{4-[(6,7-dimethoxy-4-quinolyl)oxy]phenyl}carbamate] | –
794 | 70 | – | – | COc1cc2nccc(Oc3cc(C)c(NC(=S)NCCN4CCCC4)cc3C)c2cc1OC [Example 541, N-{4-[(6,7-Dimethoxy-4-quinolyl)oxy]-2,5-dimethylphenyl}-N′-[2-(1-pyrrolidinyl)ethyl]thiourea] | –
– | – | 774 | 11 | COc1cccc(C(C)OC(=O)Nc2ccc(Oc3ncnc4cc(OC)c(OC)cc34)cc2Cl)c1 (stereo not shown) [Example 56, 1-(3-Methoxyphenyl)ethyl N-{2-chloro-4-[(6,7-dimethoxy-4-quinazolinyl)oxy]phenyl}carbamate] | –
711 | 36 | – | – | COc1cc2ncnc(Oc3ccc(NC(=S)NCCN(C)C)cc3)c2cc1OC [Example 559, N-{4-[(6,7-Dimethoxy-4-quinazolinyl)oxy]phenyl}-N′-(2-dimethylaminoethyl)thiourea] | –
– | – | 394 | 21 | COc1cc2nccc(Oc3cc(C)c(NC(=O)OC(C)c4cccc(F)c4)cc3C)c2cc1OC (stereo not shown) [Example 99, 1-(3-Fluorophenyl)ethyl N-{4-[(6,7-dimethoxy-4-quinolyl)oxy]-2,5-dimethylphenyl}carbamate] | –

More lines, now with the values behind:

Compound | IC50 (c-kit; 50 ng/ml h-SCF) [nM] | IC50 (PDGF-Ra) [nM] | IC50 (c-kit; h-SCF 50 ng/ml) [nM] | IC50 (PDGF-Ra; Pharmacological Test Example 1) [nM] | also measured
COc1ccccc1NCCOc1ccc(Oc2ccnc3cc(OC)c(OC)cc23)cc1 [Example 777, N-(2-{4-[(6,7-Dimethoxy-4-quinolyl)oxy]phenoxy}ethyl)-N-(2-methoxyphenyl)amine] | 11 | 11 | – | – | –
COc1cc2nccc(Oc3ccc(NC(=S)NC(=O)C4CCCO4)cc3)c2cc1OC (stereo not shown) [Example 765, N-{4-[(6,7-Dimethoxy-4-quinolyl)oxy]phenyl}-N′-tetrahydro-2-furanylcarbonylthiourea] | 937 | 21 | – | – | –
CCCC(CCC)OC(=O)Nc1ccc(Oc2ccnc3cc(OC)c(OC)cc23)c(C)c1C [Example 334, 1-Propylbutyl N-{4-[(6,7-dimethoxy-4-quinolyl)oxy]-2,3-dimethylphenyl}carbamate] | – | – | 484 | < 10 | –
CCCC(OC(=O)Nc1ccc(Oc2ncnc3cc(OC)c(OC)cc23)cc1)c1ccccc1 (stereo not shown) [Example 187, 1-Phenylbutyl N-{4-[(6,7-dimethoxy-4-quinazolinyl)oxy]phenyl}carbamate] | – | – | 561 | < 10 | –
CCCCc1ccc(OC(=O)Nc2cc(C)c(Oc3ccnc4cc(OC)c(OC)cc34)cc2C)cc1 [Example 272, 4-Butylphenyl N-{4-[(6,7-dimethoxy-4-quinolyl)oxy]-2,5-dimethylphenyl}carbamate] | – | – | 297 | 61 | –
COc1cc2ncnc(Oc3ccc(NC(=O)OCCSc4ccc(C)cc4)c(Cl)c3)c2cc1OC [Example 141, 3-[(4-Methylphenyl)sulfanyl]ethyl N-{2-chloro-4-[(6,7-dimethoxy-4-quinazolinyl)oxy]phenyl}carbamate] | – | – | – | 36 | inhibition at 1 µM (c-kit; figure in parentheses in −( )): 26%
COc1cc(Oc2ccnc3cc(OC)c(OC)cc23)ccc1NC(=O)NC1CCN(Cc2ccccc2)CC1 [Example 607, N-{4-[(6,7-Dimethoxy-4-quinolyl)oxy]-2-methoxyphenyl}-N′-[4-(N-benzyl)piperidinyl]urea] | 554 | 29 | – | – | –
CCCCN(CCCC)CCNC(=O)Nc1ccc(Oc2ccnc3cc(OC)c(OC)cc23)cc1 [Example 682, N-[2-(Dibutylamino)ethyl]-N′-{4-[(6,7-dimethoxy-4-quinolyl)oxy]phenyl}urea] | – | > 100 | – | – | inhibition at 1 µM (c-kit; [1]): 32%; inhibition at 0.1 µM (PDGF-Ra): 30%
COc1cc2nccc(Oc3ccc(NC(=S)NC(=O)c4ccc(CCl)cc4)cc3Cl)c2cc1OC [Example 1137, N-{3-Chloro-4-[(6,7-dimethoxy-4-quinolyl)oxy]phenyl}-N′-[4-(chloromethyl)benzoyl]thiourea] | – | 28 | – | – | inhibition at 1 µM (c-kit; figure in parentheses in −( )): 38%
CCCc1ccc(C(=O)NC(=S)Nc2ccc(Oc3ccnc4cc(OC)c(OC)cc34)c(F)c2)cc1 [Example 998, N-{4-[(6,7-Dimethoxy-4-quinolyl)oxy]-3-fluorophenyl}-N′-(4-propylbenzoyl)thiourea] | – | 25 | – | – | IC50 (c-kit; h-SCF stimulation): 591 nM
CCCC(OC(=O)Nc1ccc(Oc2ccnc3cc(OC)c(OC)cc23)cc1)c1ccccc1 (stereo not shown) [Example 184, 1-Phenylbutyl N{4-[(6,7-dimethoxy-4-quinolyl)oxy]phenyl}carbamate] | – | – | 369 | 38 | –
COc1cc2nccc(Oc3ccc(NC(=S)NC(=O)c4cc(C)ccc4C)cc3)c2cc1OC [Example 1004, N-{4-[(6,7-Dimethoxy-4-quinolyl)oxy]phenyl}-N′-(2,5-dimethylbenzoyl)thiourea] | – | 10 | – | – | IC50 (c-kit; h-SCF stimulation): 877 nM
CCCCOC(=O)Nc1ccc(Oc2ccnc3cc(OC)c(OC)cc23)c(C)c1C [Example 323, Butyl N-{4-[(6,7-dimethoxy-4-quinolyl)oxy]-2,3-dimethylphenyl}carbamate] | – | – | < 30 | < 10 | –
COc1cc2nccc(Oc3ccc(NC(=O)OCC4CCCCCC4)cc3)c2cc1OC [Example 348, Cycloheptylmethyl N-{4-[(6,7-dimethoxy-4-quinolyl)oxy]phenyl}carbamate] | – | – | 90 | < 10 | –
COc1cc2ncnc(Oc3ccc(NC(=O)NCCN(C(C)C)C(C)C)cc3)c2cc1OC [Example 656, N-[2-(Diisopropylamino)ethyl]-N′-{4-[(6,7-dimethoxy-4-quinazolinyl)oxy]phenyl}urea] | – | 19 | – | – | inhibition at 1 µM (c-kit; [1]): 32%
COc1cc2nccc(Oc3ccc(NC(=O)OCCCOc4ccc(F)cc4)c(C)c3C)c2cc1OC [Example 153, 3-(4-Fluorophenoxy)propyl N-{4-[(6,7-dimethoxy-4-quinolyl)oxy]-2,3-dimethylphenyl}carbamate] | – | – | < 30 | < 10 | –
COc1cc2nccc(Oc3ccc(NC(=O)NCCN4CCCC4)c(C)c3C)c2cc1OC [Example 620, N-{4-[(6,7-Dimethoxy-4-quinolyl)oxy]-2,3-dimethylphenyl}-N′-(2-tetrahydro-1H-1-pyrrolylethyl)urea] | 519 | < 10 | – | – | –
COc1cc2ncnc(Oc3ccc(NC(=O)OC4CCCCCC4)c([N+](=O)[O-])c3)c2cc1OC [Example 507, Cycloheptyl N-{4-[(6,7-dimethoxy-4-quinazolinyl)oxy]-2-nitrophenyl}carbamate] | 787 | 44 | – | – | –
COc1cc2nccc(Oc3ccc(NC(=S)NC(=O)CCCc4ccccc4)cc3)c2cc1OC [Example 725, N-{4-[(6,7-Dimethoxy-4-quinolyl)oxy]phenyl}-N′-(4-phenylbutanoyl)thiourea] | 413 | < 10 | – | – | –
